Test results published in patent US8835644B2, “Broad spectrum benzothiophene-nitrothiazolide and other antimicrobials” (University of Virginia Patent Foundation, priority 2009, dated 2014).
Converted amounts (≈) assume the structure as drawn. Like-named read-outs stand apart in the source and are kept apart here.

Experiments:
C. difficile [1] = test: Disk diffusion (Kirby Bower), C. difficile; type: cell-based, Clostridium difficile; settings: for Disk Diff (%) C. difficile: Nitazoxanide = 100; for Disk Diffusion (%) C. difficile: zone of inhibited growth as relative ratio to the zone for NTZ
Method in brief: (§1)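 Twofold broth microdilution from 32 μg/ml down to 0.06, in LB for E. coli, Trypticase Soy for S. epidermidis (planktonic) and Brain Heart Infusion for C. jejuni. C. difficile: anaerobic disk diffusion on Wilkins Chalgrin agar, inhibition zone expressed as a ratio to the NTZ zone.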

C. difficile [2] = test: MIC by agar dilution, C. difficile; type: cell-based, Clostridium difficile
Procedure: A standard broth dilution protocol was used in 96 well microplates containing a standard dilution of the microorganism to be tested in 100 microliters of the appropriate medium. Appropriate medium: E. coli, LB medium; Staphylococcus strains, Trypticase Soy; and for H. pylori and C. jejuni, Brain Heart Infusion. The compounds to be tested were set at 32 μg/ml in 200 microliters in well one and then serially diluted to provide a range from 32 to 0.06. The wells were scored visually at 24 h. The well where there was no growth was recorded as the MIC. […]
(§2) Representative compounds of the invention were tested in a series of assays against a series of organisms as described above. […] The organisms tested include, C. difficile, H. pylori, C. jejuni, MRSA, S. epidermidis, and E. coli. S. epidermidis and E. coli were tested in the plank and biofilm assay. A disk diffusion assay was also used for C. difficile. Direct PFOR enzyme assays were also performed. All analogues and derivatives were not tested on every organism in every type of assay (the “-” in each table means that it was not tested).

[3] = system: PFOR (pyruvate ferredoxin oxidoreductase); test: Direct PFOR enzyme assay; type: biochemical
Procedure: as §2

E. coli = test: MIC testing by broth dilution, E. coli plank; type: cell-based, Escherichia coli
Method in brief: as §1

H. pylori = test: MIC testing by broth dilution, H. pylori; type: cell-based, Helicobacter pylori
Method in brief: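 Broth dilution MIC determination against H. pylori: a standard inoculum in 100 microliters of Brain Heart Infusion medium was placed in 96 well microplates. Test compounds began at 32 μg/ml in 200 microliters in well one and were serially diluted over a 32 to 0.06 range. After 24 h, plates were scored by eye and the first well without growth was recorded as the MIC.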

MRSA = test: MIC testing by broth dilution, MRSA; type: cell-based, Staphylococcus aureus
Method in brief: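 Values are broth-dilution MICs, defined as the well showing no growth on visual reading after 24 h; the tested range was 32 to 0.06 μg/ml, in organism-specific media (LB, Trypticase Soy, Brain Heart Infusion). The C. difficile entries come instead from anaerobic Kirby-Bauer disk zones, normalised to NTZ.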

E. coli biofilm = E. coli biofilm assay (activity tables); type: cell-based, Escherichia coli
Method in brief: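 After 24 h static culture at 37 °C in wells containing NTZ, strain 042 (1:100 inoculum) biofilm was quantified by 0.5% crystal violet absorbance at 570 nm. Planktonic growth was taken from turbidity or LB plate counts as cfu/ml; all runs triplicate, reported as mean and SD.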

C. jejuni = test: MIC testing by broth dilution, C. jejuni; type: cell-based, Campylobacter jejuni
Method in brief: as §1

S. epidermidis = test: MIC testing by broth dilution, S. epidermidis plank; type: cell-based, Staphylococcus epidermidis
Method in brief: as §1

S. epidermidis biofilm = S. epidermidis biofilm assay (activity tables); type: cell-based, Staphylococcus epidermidis
Method in brief: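 Overnight TSB cultures diluted to OD600 0.01 and grown static with compound (triplicate) at 37° C for 16 h; turbidity recorded for growth. Biofilm: washed wells ethanol-fixed, stained with 0.5% crystal violet, A570 read before and after 95% ethanol extraction; mean ± SD.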

[4] = agar dilution, anaerobic, Wilkins Chalgrin agar, read-out: MIC (μM) C. difficile
[5] = broth dilution, LB medium, 24 h, read-out: MIC (μM) E. coli Plank
[6] = broth dilution, Brain Heart Infusion, 24 h, read-out: MIC (μM) H. pylori
[7] = broth dilution, Trypticase Soy, 24 h, read-out: MIC (μM) S. epidermidis Plank
[8] = broth dilution, Trypticase Soy, 24 h, read-out: MIC (μM) MRSA
[9] = biofilm, read-out: MIC (μM) E. coli Biofilm
[10] = broth dilution, Brain Heart Infusion, 24 h, read-out: MIC (μM) C. jejuni

## O=C(Nc1ncc([N+](=O)[O-])s1)c1ccoc1 [VPC16a1006, N-(5-Nitrothiazol-2-yl)furan-3-carboxamide]
C. difficile [1]; Furan analogues table
  Disk Diff (%) C. difficile: 97 ± 3%
C. difficile [2]; Clostridioides difficile, Furan analogues table, read-out: MIC C. difficile
  MIC: 33.4 µM (≈ 7.99 µg/mL)
[3]; Furan analogues table
  PFOR inhibition relative to nitazoxanide (=100): 98%
E. coli; Escherichia coli, planktonic, Furan analogues table, read-out: MIC E. coli Plank
  MIC: 134 µM (≈ 32 µg/mL)
H. pylori; Helicobacter pylori, Furan analogues table, read-out: MIC H. pylori
  MIC: 0.8 µM (≈ 0.191 µg/mL)
MRSA; Staphylococcus aureus, MRSA, Furan analogues table, read-out: MIC MRSA
  MIC: 50.2 µM (≈ 12 µg/mL)
E. coli biofilm; Escherichia coli, biofilm, Furan analogues table, read-out: MIC E. coli Biofilm
  MIC: 134 µM (≈ 32 µg/mL)
C. jejuni; Campylobacter jejuni, Furan analogues table, read-out: MIC C. jejuni
  MIC: 12.5 µM (≈ 2.99 µg/mL)

## CCCCCC(=O)Nc1ncc([N+](=O)[O-])s1 [VPC16a1007, N-(5-Nitrothiazol-2-yl)hexanamide]
C. difficile [1]
  Disk Diffusion (%) C. difficile: 56.5 ± 0.5%
C. difficile [2]; Clostridioides difficile, agar dilution, anaerobic, Wilkins Chalgrin agar, read-out: MIC (μM) C. difficile
  MIC: 65.8 µM (≈ 16 µg/mL)
[3]
  PFOR inhibition relative to nitazoxanide (=100): 123%
E. coli; Escherichia coli, broth dilution, LB medium, 24 h, read-out: MIC (μM) E. coli Plank
  MIC: 132 µM (≈ 32 µg/mL)
H. pylori; Helicobacter pylori, broth dilution, Brain Heart Infusion, 24 h, read-out: MIC (μM) H. pylori
  MIC: 1.4 µM (≈ 0.341 µg/mL)
S. epidermidis; Staphylococcus epidermidis, broth dilution, Trypticase Soy, 24 h, read-out: MIC (μM) S. epidermidis Plank
  MIC: 32.9 µM (≈ 8 µg/mL)
E. coli biofilm; Escherichia coli, read-out: MIC (μM) E. coli Biofilm
  MIC: 132 µM (≈ 32 µg/mL)
C. jejuni; Campylobacter jejuni, broth dilution, Brain Heart Infusion, 24 h, read-out: MIC (μM) C. jejuni
  MIC: 5.5 µM (≈ 1.34 µg/mL)

## O=C(Nc1ncc([N+](=O)[O-])s1)C1CCCCC1 [VPC16a1010]
C. difficile [1]
  Disk Diffusion (%) C. difficile: 53 ± 3%
C. difficile [2]; [4]
  MIC: 62.6 µM (≈ 16 µg/mL)
[3]
  PFOR inhibition relative to nitazoxanide (=100): 93%
E. coli; [5]
  MIC: 125.2 µM (≈ 32 µg/mL)
H. pylori; [6]
  MIC: 0.7 µM (≈ 0.179 µg/mL)
S. epidermidis; [7]
  MIC: 31.3 µM (≈ 7.99 µg/mL)
MRSA; [8]
  MIC: 125.2 µM (≈ 32 µg/mL)
E. coli biofilm; [9]
  MIC: 31.3 µM (≈ 7.99 µg/mL)
C. jejuni; [10]
  MIC: 11.4 µM (≈ 2.91 µg/mL)

## COc1cc([N+](=O)[O-])ccc1C(=O)Nc1ncc([N+](=O)[O-])s1 [VPC161093]
C. difficile [2]; [4]
  MIC: 98.7 µM (≈ 32 µg/mL)
[3]
  PFOR inhibition relative to nitazoxanide (=100): 115%
E. coli; [5]
  MIC: 98.7 µM (≈ 32 µg/mL)
S. epidermidis biofilm
  MIC (μM) S. epidermidis Biofilm: 12.3 µM (≈ 3.99 µg/mL)
H. pylori; [6]
  MIC: 0.6 µM (≈ 0.195 µg/mL)
S. epidermidis; [7]
  MIC: 12.3 µM (≈ 3.99 µg/mL)
MRSA; [8]
  MIC: 98.7 µM (≈ 32 µg/mL)
E. coli biofilm; [9]
  MIC: 98.7 µM (≈ 32 µg/mL)
C. jejuni; [10]
  MIC: 9.3 µM (≈ 3.02 µg/mL)

## O=C(Nc1ncc([N+](=O)[O-])s1)c1sc2cc(F)ccc2c1Cl [VPC161115]
C. difficile [1]; Thiophene analogues table
  Disk Diff (%) C. difficile: 44%
C. difficile [2]; Thiophene analogues table, read-out: MIC C. difficile
  MIC: 11.2 µM (≈ 4.01 µg/mL)
[3]; Thiophene analogues table
  PFOR inhibition relative to nitazoxanide (=100): 96%
E. coli; planktonic, Thiophene analogues table, read-out: MIC E. coli Plank
  MIC: 89.4 µM (≈ 32 µg/mL)
S. epidermidis biofilm; Thiophene analogues table
  MIC S. epidermidis Biofilm: 0.1 µM (≈ 0.0358 µg/mL)
H. pylori; Thiophene analogues table, read-out: MIC H. pylori
  MIC: 1.0 µM (≈ 0.358 µg/mL)
S. epidermidis; planktonic, Thiophene analogues table, read-out: MIC S. epidermidis Plank
  MIC: 5.6 µM (≈ 2 µg/mL)
MRSA; Thiophene analogues table, read-out: MIC MRSA
  MIC: 2.1 µM (≈ 0.751 µg/mL)
E. coli biofilm; biofilm, Thiophene analogues table, read-out: MIC E. coli Biofilm
  MIC: 5.6 µM (≈ 2 µg/mL)
C. jejuni; Thiophene analogues table, read-out: MIC C. jejuni
  MIC: 5.6 µM (≈ 2 µg/mL)
